Measurements: the NIST ThermoML archive (doi:10.1016/j.jct.2016.10.009)

Assay: xn = mol fraction of the nth substance listed
Conditions: Liquid, Vibrating tube method

CC(C)OC(C)C [diisopropyl ether] + CCC(C)O
mass density [kg/m3]
Conditions | x2 = 0 | x2 = 0.2036 | x2 = 0.3227 | x2 = 0.4464 | x2 = 0.4973 | x2 = 0.6595 | x2 = 0.8482
298.15 K, 80000 kPa | – | – | – | – | – | 823.7 | 837.7
298.15 K, 90000 kPa | 790.3 | 801 | 807.7 | 814.9 | 818 | 828.7 | 842.4
298.15 K, 100000 kPa | 795.7 | 806.1 | 812.7 | 819.8 | 822.9 | 833.3 | 846.9
298.15 K, 110000 kPa | 800.8 | 811.1 | 817.6 | 824.5 | 827.5 | 837.9 | 851.2
298.15 K, 120000 kPa | 805.6 | 815.8 | 822.1 | 829 | 832 | 842.1 | 855.3
298.15 K, 130000 kPa | 810.3 | 820.3 | 826.5 | 833.3 | 836.3 | 846.3 | 859.2
298.15 K, 140000 kPa | 814.6 | 824.6 | 830.9 | 837.5 | 840.4 | 850.3 | 863.1
313.15 K, 100 kPa | 702.4 | 717.2 | 726.3 | 736.2 | 740.5 | 755.1 | 773.8
313.15 K, 1000 kPa | 703.8 | 718.4 | 727.5 | 737.3 | 741.6 | 756.1 | 774.7
313.15 K, 5000 kPa | 709.4 | 723.5 | 732.4 | 741.9 | 746.1 | 760.2 | 778.4
313.15 K, 10000 kPa | 715.8 | 729.6 | 738.2 | 747.4 | 751.5 | 765.2 | 782.9
313.15 K, 15000 kPa | 721.7 | 735 | 743.4 | 752.4 | 756.4 | 769.8 | 787.1
313.15 K, 20000 kPa | 727.2 | 740.2 | 748.4 | 757.1 | 761 | 774.1 | 791.1
313.15 K, 25000 kPa | 732.1 | 744.8 | 752.8 | 761.4 | 765.2 | 778 | 794.6
313.15 K, 30000 kPa | 737.1 | 749.5 | 757.4 | 765.8 | 769.6 | 782.1 | 798.4
313.15 K, 35000 kPa | 741.6 | 753.8 | 761.5 | 769.8 | 773.5 | 785.8 | 801.8
313.15 K, 40000 kPa | 745.9 | 757.8 | 765.4 | 773.6 | 777.2 | 789.3 | 805.1
313.15 K, 45000 kPa | 750 | 761.7 | 769.2 | 777.2 | 780.8 | 792.8 | 808.3
313.15 K, 50000 kPa | 753.9 | 765.5 | 772.9 | 780.8 | 784.3 | 796.1 | 811.4
313.15 K, 55000 kPa | 757.7 | 769.1 | 776.4 | 784.2 | 787.7 | 799.3 | 814.4
313.15 K, 60000 kPa | 761.3 | 772.7 | 779.8 | 787.4 | 790.9 | 802.3 | 817.3
313.15 K, 65000 kPa | 764.8 | 776 | 783.1 | 790.7 | 794.1 | 805.4 | 820.1
313.15 K, 70000 kPa | 768.1 | 779.1 | 786.1 | 793.7 | 797 | 808.2 | 822.8
313.15 K, 80000 kPa | 774.4 | 785.2 | 792.1 | 799.4 | 802.7 | 813.7 | 827.9
313.15 K, 90000 kPa | 780.5 | 791 | 797.8 | 805 | 808.2 | 818.9 | 832.9
313.15 K, 100000 kPa | 786.1 | 796.5 | 803.1 | 810.1 | 813.4 | 823.9 | 837.6
313.15 K, 110000 kPa | 791.4 | 801.7 | 808.2 | 815.1 | 818.3 | 828.6 | 842.1
313.15 K, 120000 kPa | 796.5 | 806.5 | 813 | 819.8 | 822.9 | 833 | 846.4
313.15 K, 130000 kPa | 801.4 | 811.3 | 817.7 | 824.4 | 827.4 | 837.4 | 850.5
313.15 K, 140000 kPa | 806 | 815.8 | 822 | 828.7 | 831.7 | 841.6 | 854.5
333.15 K, 100 kPa | 680.5 | 695.4 | 704.8 | 715.1 | 719.6 | 734.7 | 754.2
333.15 K, 1000 kPa | 682.1 | 696.9 | 706.3 | 716.4 | 720.9 | 735.9 | 755.4
333.15 K, 5000 kPa | 688.9 | 703 | 712.1 | 721.9 | 726.3 | 740.8 | 759.7
333.15 K, 10000 kPa | 696.4 | 709.9 | 718.7 | 728.2 | 732.4 | 746.5 | 764.8
333.15 K, 15000 kPa | 703.2 | 716.4 | 724.8 | 734 | 738.1 | 751.8 | 769.6
333.15 K, 20000 kPa | 709.4 | 722.2 | 730.4 | 739.3 | 743.4 | 756.7 | 774.1
333.15 K, 25000 kPa | 715.1 | 727.6 | 735.7 | 744.4 | 748.3 | 761.3 | 778.2
333.15 K, 30000 kPa | 720.5 | 732.7 | 740.5 | 749.1 | 752.9 | 765.7 | 782.3
333.15 K, 35000 kPa | 725.6 | 737.5 | 745.2 | 753.6 | 757.3 | 769.8 | 786.2
333.15 K, 40000 kPa | 730.3 | 742 | 749.6 | 757.8 | 761.5 | 773.7 | 789.8
333.15 K, 45000 kPa | 734.8 | 746.3 | 753.7 | – | – | – | –
